Results as given in article PMC10497752, “Heparins are potent inhibitors of ectonucleotide pyrophosphatase/phospho-diesterase-1 (NPP1) – a promising target for the immunotherapy of cancer” (Frontiers in Immunology, 2023).

Tests used:
[1] = target: T1, human NPP3 (Homo sapiens, UniProt O14638); test: NPP3 colorimetric assay, p-Nph-5'-TMP as substrate; assay type: biochemical; settings: 20 µg/mL (12 µM)
T1 construct: Soluble and purified human NPP3, prepared as previously described; made in house
T1 sequence (O14638 31-875 limits assumed): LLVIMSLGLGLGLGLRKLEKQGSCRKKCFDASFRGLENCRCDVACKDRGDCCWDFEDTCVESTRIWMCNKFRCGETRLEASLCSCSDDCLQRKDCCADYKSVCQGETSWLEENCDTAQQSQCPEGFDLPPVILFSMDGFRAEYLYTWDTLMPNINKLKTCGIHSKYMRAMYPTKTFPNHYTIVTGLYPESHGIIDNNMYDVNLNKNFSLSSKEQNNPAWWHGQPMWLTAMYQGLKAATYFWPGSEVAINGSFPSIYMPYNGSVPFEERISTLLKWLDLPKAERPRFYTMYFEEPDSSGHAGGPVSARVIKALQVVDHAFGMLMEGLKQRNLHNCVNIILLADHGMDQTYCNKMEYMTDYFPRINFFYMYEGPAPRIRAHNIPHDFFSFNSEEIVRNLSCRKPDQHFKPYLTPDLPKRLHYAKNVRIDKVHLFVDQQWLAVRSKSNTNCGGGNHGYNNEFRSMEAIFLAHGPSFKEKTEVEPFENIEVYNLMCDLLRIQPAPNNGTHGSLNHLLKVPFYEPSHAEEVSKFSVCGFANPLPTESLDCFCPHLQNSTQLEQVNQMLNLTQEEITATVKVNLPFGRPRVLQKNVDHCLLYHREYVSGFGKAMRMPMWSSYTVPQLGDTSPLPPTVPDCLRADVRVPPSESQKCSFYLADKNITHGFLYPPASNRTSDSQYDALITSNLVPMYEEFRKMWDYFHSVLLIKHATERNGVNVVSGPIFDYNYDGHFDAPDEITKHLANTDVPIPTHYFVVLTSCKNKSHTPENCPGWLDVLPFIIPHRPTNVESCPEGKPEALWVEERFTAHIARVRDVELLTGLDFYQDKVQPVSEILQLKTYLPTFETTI
Experimental: Compounds 1, 2, 5, 6, and 7 were screened at different concentrations using 400 μM of p-nitrophenyl thymidine monophosphate (p-Nph-5´-TMP) as substrate to study potential inhibition of NPP3 and NPP5 using a colorimetric assay as previously described ([21]). Soluble and purified human NPP3, prepared as previously described ([22]), and human NPP5 ([23]) were diluted in the assay buffer (50 mM TRIS HCl, 2 mM CaCl2, and 0.2 mM ZnCl2, pH 9.00), and 0.09 µg of NPP3, or 0.4 µg of NPP5 were employed. The mixtures were incubated for 30 min at 37°C in case of NPP3, and for 100 min at 37°C in case of NPP5, and the reactions were subsequently terminated by adding 20 μL of 1.0 N aq. NaOH solution. The assay is based on the enzymatic ester hydrolysis of p-Nph-5’-TMP which results in the formation of the yellow p-nitrophenolate anion. The absorption was measured at 400 nm using a BMG PheraStar FS plate reader (BMG Labtech GmbH, Ortenberg, Germany). Each analysis was repeated three times with triplicate measurements.

[2] = tested on: U87 human glioblastoma cells; test: U87 cell-based assay, extracellular adenosine formation from ATP (CE-UV); settings: U-87 MG, 300 µM ATP, 3 h, DP and EHNA, 10 µg/mL (~ 6 µM)
Experimental: U87 human glioblastoma cells were grown in cell culture flasks until reaching a fully covered confluent cell layer. Cells were cultivated at 37°C and 5% CO2 in DMEM with additions of 10% FCS, 1% penicillin/streptomycin and 1% L-glutamine. The cells were rinsed with phosphate-buffered saline (PBS) and detached with EDTA. Thereafter, they were counted by a Cell Counter CASY® 1 Model TT (Schärfe System GmbH, Reutlingen, Germany) to retrieve the number of viable cells, and washed three times with PBS before they were resuspended in Krebs-HEPES buffer at a concentration of 10^6 cells/mL ([37]). Then, 1 mL of cell suspension was transferred into a 24-well plate. The cells were pretreated with the nucleoside transport inhibitor dipyridamole (20 µM) for 30 min ([38]). Adenosine deaminase (ADA) activity was inhibited by the addition of 1 µM of the inhibitor EHNA (erythro-9-amino-β-hexyl-α-methyl-9H-purine-9-ethanol hydrochloride) ([39]). Heparins, their non-anticoagulative analogs, and the known ectonucleotidase inhibitor PSB-POM-141 ([20]) were added. The samples were incubated with 300 µM of ATP for 3 h at 37°C and 5% CO2. […]
The percentage of inhibition of adenosine format ion in U87 cell supernatants by heparin derivatives was calculated from the conversion rate as follows: […]

- NPP3 inhibition, selectivity study [1]: no effect
SMILES: CO[C@H]1O[C@H](COS(=O)(=O)O)[C@@H](O[C@@H]2O[C@@H](C(=O)O)[C@@H](O[C@H]3O[C@H](COS(=O)(=O)O)[C@@H](O[C@@H]4O[C@H](C(=O)O)[C@@H](O[C@H]5O[C@H](COS(=O)(=O)O)[C@@H](O)[C@H](O)[C@H]5NS(=O)(=O)O)[C@H](O)[C@H]4O)[C@H](OS(=O)(=O)O)[C@H]3NS(=O)(=O)O)[C@H](O)[C@H]2OS(=O)(=O)O)[C@H](O)[C@H]1NS(=O)(=O)O [Compound 6, Fondaparinux]
- inhibition at 10 µg/mL [2]: 60%
